{
  "source": "patent US11523997B2",
  "about": "“Method of providing celiprolol therapy to a patient” (Assistance Publique-Hôpitaux de Paris (AP-HP), priority 2017, dated 2022)",
  "key": {"[1]": {"system": "patients with molecularly confirmed vascular EDS", "experiment": "Cohort follow-up: incidence of acute arterial events and hospitalizations", "assay_type": "in vivo, human", "method": "(§1) All patients with clinically and molecularly diagnosed vEDS that were actively followed clinically in the French National Referral Centre for Rare Vascular Diseases (HEGP, AP-HP, Paris, France) between January 2000 and March 2017 were screened for participation. During the initial evaluation of the first affected family member seeking medical attention for symptoms related to vEDS (index case), familial medical history was recorded and investigation performed in the first-degree relatives whenever possible. A dedicated database for vEDS was created at our institution in 2011. All relevant clinical data of every vEDS patient followed by our centre was entered into this database retrospectively from the year 2000 until 2011, and prospectively thereafter until Mar. 15, 2017. The database contains all available medical history related to the pathology before the initial work-up and obtained during the follow-up either through systematic visits or those caused by a new clinical event. Thus, the occurrence of any acute arterial, gastrointestinal, pulmonary and other vEDS-related events was systematically recorded. In case of death during follow-up, the time and cause of death were entered into the database. This study was formally approved by the IDF ethics committee (IRB registration #00001072) and the database was held in compliance with French legislation on patient privacy.\n(§2) All vEDS patients benefited from standardized whole body arterial monitoring by Doppler Ultrasound (DUS) and CT angiogram and/or MRA. Such investigations were performed at baseline (initial assessment at molecular diagnosis) and was repeated every 12 to 15 months in asymptomatic patients. For arterial events that occurred before molecular diagnosis, location of arterial segments was retrieved from hospitalization and imaging reports or examinations, when available. In case of an acute arterial event, symptomatic arterial beds/segments were monitored by any necessary diagnostic and therapeutic means (CT-angiogram, DUS, angiography in case of embolization). […] For optimized management of arterial, gastrointestinal, and pulmonary emergencies, patients were given direct access to the medical team of our centre.\nIn order to assess arterial morbidity over a long timeline in patients with different follow-up periods, an empirical arterial score was designed for each subject. […]\nQuantitative data were expressed as number, median, first and third quartiles; qualitative data were expressed as number and percentage. […] Quantitative variables were compared with the Wilcoxon-Mann-Whitney or the Kruskal Wallis tests, as appropriate. […]"}, "[2]": {"system": "patients with molecularly confirmed vascular EDS", "experiment": "Cohort follow-up: tolerance of celiprolol with 3-month up-titration", "assay_type": "in vivo, human", "method": "(§3) Since the publication of the BBest trial in 2011, all included patients followed by our centre and not already treated with celiprolol were offered to switch to celiprolol. Patients who were not part of the trial and who were diagnosed during or since the termination of the BBest trial were treated with celiprolol starting at molecular diagnosis. Initial dosing of celiprolol was 100 mg once daily and increased by 100 mg/day every month over a 3-month period to reach the dose of 400 mg/day (200 mg twice daily) (celiprolol hydrochloride). In case of signs of intolerance (fatigue, dizziness) during up-titration or follow-up, the dose of celiprolol was reduced by 100 mg/day until the highest tolerated dose was reached. Dose adjustments were made whenever necessary throughout the patient's follow-up if intolerance was suspected. In accordance with the treatment protocol of the BBEST trial, patients were up-titrated to a maximum dose of 200 mg twice daily.\nAdherence to medication was verified by open interview of the patients at each follow-up visit. Low medication adherence was considered if patients admitted to not taking their medication regularly at any moment of their follow-up. Patients were considered intolerant to celiprolol in case of refusal to follow the prescription even at a minimum dose of 100 mg/day. Patients taking another beta-blocker were offered to switch to celiprolol but this change was not mandatory, especially if patients had been clinically silent until molecular diagnosis while under another betablocker. If an acute arterial event occurred, patients were once again offered to switch to celiprolol. To reach significant numbers to allow comparative analysis, intolerant patients, patients not taking celiprolol, patients taking another betablocker and non-adherent patients were merged into one group further referred to as “not treated”."}, "[3]": {"system": "patients with molecularly confirmed vascular EDS", "experiment": "Long-term cohort follow-up of vEDS patients treated with celiprolol: patient survival (Kaplan-Meier, Cox model)", "assay_type": "in vivo, human", "design": "Survival of patients at 1 year of follow-up / Survival of patients at 5 years of follow-up / Survival of patients at 10 years of follow-up / Overall patient survival (Kaplan-Meier) / Survival at end of follow-up in those treated with celiprolol / Survival according to type of variant: Group I / Survival according to type of variant: Group II / Survival according to type of variant: Group III: concentration or dose not given beside the values", "method": "as §1, §2, §3\nAdherence to medication was verified by open interview of the patients at each follow-up visit. Low medication adherence was considered if patients admitted to not taking their medication regularly at any moment of their follow-up. Patients were considered intolerant to celiprolol in case of refusal to follow the prescription even at a minimum dose of 100 mg/day. Patients taking another beta-blocker were offered to switch to celiprolol but this change was not mandatory, especially if patients had been clinically silent until molecular diagnosis while under another betablocker. If an acute arterial event occurred, patients were once again offered to switch to celiprolol. […]"}, "[4]": {"system": "patients with a phenotype of vEDS or molecularly proven vEDS", "settings": "final 200 mg twice a day (BID); 5-year follow-up; 18-month up-titration; cited from earlier work"}, "[5]": {"settings": "whole cohort, 90.3% on celiprolol by end of study"}, "[6]": {"settings": "Cox's model, stepwise method, n=132"}, "[7]": {"settings": "multivariate Cox's model, n=132 (Groups I and II)"}},
  "data": [
    {"smiles": "CCN(CC)C(=O)Nc1ccc(OCC(O)CNC(C)(C)C)c(C(C)=O)c1", "note": "(stereo not shown) [celiprolol, N′-(3-Acetyl-4-(3-((1,1-dimethylethyl)amino)-2-hydroxypropoxy)phenyl)-N, N-diethylurea]", "values": [
      {"measurement": "Odds ratio (OR), rate of hospitalizations for acute arterial event before and after 2011", "setting": "[1]; before vs after systematic introduction of celiprolol (2011)", "value": 1.72},
      {"measurement": "Effect of celiprolol on mean age of occurrence of first and second new arterial event", "setting": "[1]; in vivo", "value": "without identifiable effect"},
      {"measurement": "Cumulative incidence of a first new arterial event during follow-up", "setting": "[1]; [5]", "value": 56.8, "unit": "%"},
      {"measurement": "Cumulative incidence of a second new arterial event during follow-up", "setting": "[1]; [5]", "value": 29.8, "unit": "%"},
      {"measurement": "Celiprolol intolerance and side effects with about three-month up-titration", "setting": "[2]; full dose, up-titration of about three months", "value": "without significant increase"},
      {"measurement": "Patients requiring dose reduction due to fatigue and/or dizziness", "setting": "[2]; human, in vivo", "value": 3.47, "unit": "%"},
      {"measurement": "Patients who declared themselves intolerant to celiprolol or refused to take it in fear of intolerance", "setting": "[2]; n=2 of 144", "value": 1.4, "unit": "%"},
      {"measurement": "Observed reduction in mortality: dose dependence", "setting": "[3]; 400 mg/day better than a smaller dose", "value": "dose-dependent"},
      {"measurement": "Hazard ratio, celiprolol treatment Full dose/No", "setting": "[3]; [6]", "value": 0.060},
      {"measurement": "Hazard ratio, celiprolol treatment Half dose/No", "setting": "[3]; [6]", "value": 0.305},
      {"measurement": "Hazard ratio, treatment duration ≥6 years/<6 years", "setting": "[3]; [6]", "value": 0.058},
      {"measurement": "Survival according to type of variant: Group I", "setting": "[3]; Group I (glycine missense), n=144 cohort", "value": 65.1, "unit": "%"},
      {"measurement": "Survival according to type of variant: Group II", "setting": "[3]; Group II (splice-site variants, insertions/deletions, duplications)", "value": 89.6, "unit": "%"},
      {"measurement": "Survival according to type of variant: Group III", "setting": "[3]; Group III (haploinsufficiency)", "value": 100, "unit": "%"},
      {"measurement": "Survival at end of follow-up in those treated with celiprolol", "setting": "[3]; Groups I and II (n=132), treated n=110", "value": 80.7, "unit": "%"},
      {"measurement": "Survival at end of follow-up according to daily dose: celiprolol 400 mg/day", "setting": "[3]; Groups I and II, 400 mg/day", "value": 85, "unit": "%"},
      {"measurement": "Survival at end of follow-up according to daily dose: celiprolol 100-300 mg/day", "setting": "[3]; Groups I and II, 100-300 mg/day", "value": 62.8, "unit": "%"},
      {"measurement": "Hazard ratio, celiprolol treatment Full dose/No", "setting": "[3]; [7]", "value": 0.048},
      {"measurement": "Hazard ratio, celiprolol treatment Half dose/No", "setting": "[3]; [7]", "value": 0.303},
      {"measurement": "Hazard ratio, treatment duration ≥6 years/<6 years", "setting": "[3]; [7]", "value": 0.058},
      {"measurement": "Survival of patients at 1 year of follow-up", "setting": "[3]; n=144, 1 year", "value": 98.6, "unit": "%"},
      {"measurement": "Survival of patients at 5 years of follow-up", "setting": "[3]; n=144, 5 years", "value": 92, "unit": "%"},
      {"measurement": "Survival of patients at 10 years of follow-up", "setting": "[3]; n=144, 10 years", "value": 82.7, "unit": "%"},
      {"measurement": "Overall patient survival (Kaplan-Meier)", "setting": "[3]; n=144 vascular EDS patients, end of follow-up", "value": 71.6, "unit": "%"},
      {"measurement": "Deceased patients with celiprolol treatment (Yes), %", "setting": "[3]; of N=17 deceased patients", "value": "(52.9%)"},
      {"measurement": "Alive patients with celiprolol treatment (Yes), %", "setting": "[3]; of N=127 alive patients", "value": "(87.4%)"},
      {"measurement": "Survival of patients treated with celiprolol compared with others", "setting": "[3]; overall conclusion", "value": "better survival than others"},
      {"measurement": "reduction in morbidity and mortality", "setting": "[4]", "value": 35, "unit": "%"}
    ]}
  ]
}
